Results on two compounds are retold here after patent US9937165B2, “Pharmacological chaperones for treating obesity” (Amicus Therapeutics, Inc., priority 2005, dated 2018).

Data set [1] addresses T1, α-Galactosidase A (α-Gal A) (Homo sapiens, UniProt P06280).
T1 sequence (P06280 32-429): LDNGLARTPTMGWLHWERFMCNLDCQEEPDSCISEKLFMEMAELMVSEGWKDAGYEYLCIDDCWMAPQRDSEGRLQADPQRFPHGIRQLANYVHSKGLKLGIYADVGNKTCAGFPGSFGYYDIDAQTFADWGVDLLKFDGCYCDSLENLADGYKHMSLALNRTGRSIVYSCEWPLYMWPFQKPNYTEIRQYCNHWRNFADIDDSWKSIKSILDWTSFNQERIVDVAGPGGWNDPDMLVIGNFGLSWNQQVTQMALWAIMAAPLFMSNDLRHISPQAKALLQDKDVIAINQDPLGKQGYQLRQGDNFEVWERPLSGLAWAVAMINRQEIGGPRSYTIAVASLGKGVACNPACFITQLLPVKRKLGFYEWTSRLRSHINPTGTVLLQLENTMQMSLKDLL
Further details: host or cells: normal lymphoblasts (endogenous enzyme). To be noted: normal lymphoblasts cultured in vitro with DGJ; cited from earlier work.

Data set [2] in a line: Phase I study of DGJ, safety and tolerability. It counts as in vivo, human. On the procedure: (§1) Subjects were housed in the treatment facility from 14 hours prior to dosing until 24 hours after dosing. Meals were controlled by schedule and subjects remained abulatory for 4 hours post drug administration.
Safety was determined by evaluating vital signs, laboratory parameters (serum chemistry, hematology, and urinalysis), ECGs, physical examination and by recording adverse events during the Treatment Period.
Safety data including laboratory evaluations, physical exams, adverse events, ECG monitoring and vital signs assessments were summarized by treatment group and point of time of collection. Descriptive statistics (arithmetic mean, standard deviation, median, minimum and maximum) were calculated for quantitative safety data as well as for the difference to baseline. Frequency counts were compiled for classification of qualitative safety data.
Adverse events were coded using the MedDRA version 7.0 dictionary and summarized by treatment for the number of subjects reporting the adverse event and the number of adverse events reported. A by-subject adverse event data listing including verbatim term, coded term, treatment group, severity, and relationship to treatment was provided. Concomitant medications and medical history were listed by treatment.

The nature of data set [3]: Phase I study of DGJ, pharmacokinetics in plasma and urine. The class given is in vivo, human. As for the experimental part:
as §1
Blood samples (10 mL each) were collected in blood collection tubes containing EDTA before dosing and at the following times thereafter: 0.25, 0.5, 0.75, 1, 1.5, 2, 3, 4, 5, 6, 7, 8, 9, 10, 11 and 12 hours. Blood samples were cooled in an ice bath and centrifuged under refrigeration as soon as possible. Plasma samples were divided into two aliquots and stored at […]. pending assay. At the end of the study, all samples were transferred to MDS Pharma Services Analytical Laboratories (Lincoln) for analysis.
Pharmacokinetic parameters were summarised by treatment group using descriptive statistics (arithmetic means, standard deviations, coefficients of variation, sample size, minimum, maximum and median).

The target of data set [4] is T1, α-Galactosidase A (α-Gal A). Nature of the data set: Phase I study of DGJ, WBC α-Gal A enzymatic activity. The class given is in vivo. More on the design: α-Gal A activity was calculated in white blood cells (WBC) before dosing began; endogenous in cells. On the procedure: as §1
Blood samples (10 mL each) were collected in blood collection tubes containing EDTA and WBC extracted before dosing and at the following times thereafter: 100 hours, 150 hours, and 336 hours. Samples were treated as described above, and WBC α-Gal A enzymatic activity levels were determined.

Data set [5] concerns the target MC4R (Homo sapiens, UniProt P32245). To be noted: cited from earlier work.

Values joined by “and” are separate entries in the source; they are usually repeats but may differ in a detail not shown here. Equal entries are not always repeated.

Chain of MC4R (P32245 whole entry): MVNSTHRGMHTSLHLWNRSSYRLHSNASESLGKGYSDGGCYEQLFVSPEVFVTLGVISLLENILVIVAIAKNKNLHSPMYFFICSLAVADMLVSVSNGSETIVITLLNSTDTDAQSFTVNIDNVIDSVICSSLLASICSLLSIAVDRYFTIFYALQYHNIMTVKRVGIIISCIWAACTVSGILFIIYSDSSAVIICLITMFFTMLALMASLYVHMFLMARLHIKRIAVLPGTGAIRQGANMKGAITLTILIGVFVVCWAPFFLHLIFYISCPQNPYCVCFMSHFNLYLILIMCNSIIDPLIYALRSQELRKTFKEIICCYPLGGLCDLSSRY

For `OC[C@H]1NC[C@H](O)[C@@H](O)[C@H]1O` [DGJ, 1-deoxygalactonojirimycin], the “increase of α-Gal A activity” value in data set [1] was 30%. In addition, in data set [2] (50 mg b.i.d. and 150 mg b.i.d., healthy male subjects), the safety and tolerability result is “safe and well tolerated”. Moreover, in data set [2] (50 mg b.i.d. or 150 mg b.i.d., healthy male subjects), the “adverse events (AEs)” value was “no subject presented with AEs”. Besides, in data set [2] (throughout the study), the “vital sign, ECG, or physical examination parameter” value is “No clinically relevant abnormality”. Further, the tmax in data set [3] (50 mg b.i.d. oral, Day 1) worked out at 2.9 ± 0.4 h; in data set [3] (50 mg b.i.d. oral, Day 7) it was 2.5 ± 0.4 h; in data set [3] (150 mg b.i.d. oral, Day 1), 3.1 ± 0.4 h; in data set [3] (150 mg b.i.d. oral, Day 7) it was 2.9 ± 0.4 h. Besides, the t½ (usually the time in which the quantity being followed falls by half) in data set [3] (50 mg b.i.d. oral, Day 1) was determined as 2.5 h; in data set [3] (150 mg b.i.d. oral, Day 1) it was 2.4 h. The “12 h cumulative renal excretion” value is 16% and 16 ± 6% in data set [3] (50 mg b.i.d. oral, Day 1, 12-hour post dose period); 48% and 48 ± 7% in data set [3] (50 mg b.i.d. oral, Day 7, 12-hour post dose period); 42% and 42 ± 7% in data set [3] (150 mg b.i.d. oral, Day 1, 12-hour post dose period); 60% and 60 ± 5% in data set [3] (150 mg b.i.d. oral, Day 7, 12-hour post dose period). For the same compound, the Cmax (usually the peak of the concentration-time curve) came out at 2.3 ± 0.3 µM in data set [3] (50 mg b.i.d. oral, Day 1, plasma); 39 ± 0.5 µM in data set [3] (50 mg b.i.d. oral, Day 7, plasma); 11.3 ± 1.5 µM in data set [3] (150 mg b.i.d. oral, Day 1, plasma); 10.8 ± 1.4 µM in data set [3] (150 mg b.i.d. oral, Day 7, plasma). Moreover, the Cmin in data set [3] (50 mg b.i.d. oral, Day 7) came out at 0.4 ± 0.03 µM; in data set [3] (150 mg b.i.d. oral, Day 7) it was 1.2 ± 0.1 µM. Moreover, the “time of peak concentrations, on average” value in data set [3] (all dose levels) was “approximately 3 hours”. Further, the “dose dependence of Cmax” value in data set [3] (doses increased from 50 mg to 150 mg) is “increased in a dose-proportional manner”. For the same compound, the “inhibition of WBC α-Gal A enzymatic activity” value in data set [4] (50 mg b.i.d. or 150 mg b.i.d.) is given as “did not inhibit”. The “WBC α-Gal A enzymatic activity, % pre-dose levels” value in data set [4] (50 mg b.i.d., 150 hours) is 130%; in data set [4] (50 mg b.i.d., 336 hours) it was 145%; in data set [4] (150 mg b.i.d., 100 hours), 150%; in data set [4] (150 mg b.i.d., 150 hours), 185%; in data set [4] (150 mg b.i.d., 336 hours), 185%.

`O=C(N[C@H](Cc1ccc(Cl)cc1)C(=O)N1CCN(c2ccccc2CN2CCCC2)CC1)[C@H]1Cc2ccccc2CN1` [Compound 2]: in data set [5], the EC50 (in general, the concentration at which the effect is half-maximal) was 39 nM.
